Assays:
benzodiazepine receptors = assay: Affinity for benzodiazepine receptors ([3H] flunitrazepam radioreceptor binding); conditions: inhibition of specific binding of 0.6 nM [^3 H] flunitrazepam, rat forebrain membrane preparations; read-out: Receptor Binding (IC50 nM)
Description: A. Affinity for benzodiazepine receptors
The affinity of the compounds for benzodiazepine receptors was assessed using the radioligand [^3 H] flunitrazepam and modifications of the original radioreceptor binding method of Squares and Braestrup (Nature, Vol. 266 (1977) p. 732). The values given in Table VI are nanomolar concentrations of test compound which inhibited the specific binding of 0.6 nM[^3 H] flunitrazepam to rat forebrain membrain preparations by 50% (IC50 nM).

[1] = Anxiolytic activity, Geller conflict method (Geller and Seifter); type: in vivo; conditions: po; modified Geller and Seifter conflict method; read-out: Geller Conflict (MED mg/kg po), minimum effective dose at which there was an observed increase in shocks above control
Description: Screening for anxiolytic activity was carried out by modifications of the conflict method of Geller and Seifter (Psychopharmacologia, (1960), Volume I, p. 482). The values given in Table VI are the minimum effective doses at which there was an observed increase in shocks above control (MED me/kg po).

SMILES	IC50 (benzodiazepine receptors)	minimal effective dose [1]
COc1nc2nc(C(=O)c3ccccc3)cn2c2c1CCCC2 [Example 1, (5-methoxy-6,7,8.9-tetrahydroimidazo[1,2-a]quinazolin-2-yl)phenylmethanone]	61 nM	5 mg/kg
COc1cc(C)n2cc(C(=O)c3ccccc3)nc2n1 [Example 3, (7-Methoxy-5-methylimidazol[1,2-a]pyrimidin-2-yl)-phenyl methanone]	800 nM	5 mg/kg
COc1nc2nc(C(=O)c3ccccc3)cn2c2c1CCC2 [Example 4, (5-Methoxycyclopenta[e]imidazol[1,2-a]pyrimidin-2-yl)-phenylmethanone]	200 nM	20 mg/kg
CSc1nc2nc(C(=O)c3ccccc3)cn2c2c1CCC2 [Example 6, [5-(Methylthio)cyclopenta[e]imidazo[1,2-a]pyrimidin-2-yl]phenylmethanone]	35 nM	2 mg/kg
COc1nc2nc(C(=O)c3ccccc3)cn2c(C)c1C [Example 7, (7-Methoxy-5,6-dimethylimidazo[1,2-a]pyrimidin-2-yl)phenylmethanone]	235 nM	50 mg/kg
COc1nc2nc(C(=O)c3ccccc3)cn2c2c1CCCCC2 [Example 8]	125 nM	10 mg/kg
COc1nc2nc(C(=O)c3ccccc3)cn2c(C)c1Cc1ccccc1 [Example 9, (6-Benzyl-7-methoxy-5-methylimidazo[1,2-a]pyrimidin-2-yl)phenylmethanone]	45 nM	50 mg/kg
CCOc1nc2nc(C(=O)c3ccccc3)cn2c2c1CCCCC2 [Example 10]	4000 nM	5 mg/kg
COc1nc2nc(C(=O)c3ccccc3)cn2c(C)c1C(C)C [Example 11, (7-Methoxy-5-methyl-6-(1-methylethyl)imidazo[1,2-a]pyrimidin-2-yl)phenylmethanone]	37 nM	2 mg/kg
CSc1nc2nc(C(=O)c3ccccc3)cn2c2c1CCCC2 [Example 12, [5-(Methylthio)-6,7,8,9-tetrahydroimidazo[1,2-a]quinazolin-2-yl]phenylmethanone]	8.5 nM	10 mg/kg
CCSc1nc2nc(C(=O)c3ccccc3)cn2c2c1CCC2 [Example 13, [5-(Ethylthio)cyclopenta[e]imidazo[1,2-a]pyrimidin-2-yl]phenylmethanone]	1850 nM	50 mg/kg
CCCc1cc(OC)nc2nc(C(=O)c3ccccc3)cn12 [Example 14, (7-Methoxy-5-propylimidazo[1,2-a]pyrimidin-2-yl)phenylmethanone]	535 nM	1 mg/kg
CCc1cc(OC)nc2nc(C(=O)c3ccccc3)cn12 [Example 15, (5-Ethyl-7-methoxyimidazo[1,2-a]pyrimidin-2-yl)phenylmethanone]	295 nM	2 mg/kg
CCc1c(OC)nc2nc(C(=O)c3ccccc3)cn2c1C [Example 16, (6-Ethyl-7-methoxy-5-methylimidazo[1,2-a]pyrimidin-2-yl)phenylmethanone]	56 nM	2 mg/kg
COc1nc2nc(C(=O)c3ccccc3)cn2c2c1CCC(C)C2 (stereo not drawn) [Example 17, (5-Methoxy-8-methyl-6,7,8,9-tetrahydroimidazo[1,2-a]quinazolin-2-yl]phenylmethanone]	135 nM	10 mg/kg
CSc1nc2nc(C(=O)c3ccccc3)cn2c2c1CCC(C)C2 (stereo not drawn) [Example 18, [8-Methyl-5-(methylthio)-6,7,8,9-tetrahydroimidazo[1,2-a]quinzolin-2-yl]phenylmethanone]	76 nM	50 mg/kg
CCCCCCc1c(OC)nc2nc(C(=O)c3ccccc3)cn2c1C [Example 19, (6-n-Hexyl-7-methoxy-5-methylimidazo[1,2-a]pyrimidin-2-yl)phenylmethanone]	180 nM	20 mg/kg
C=CCc1c(OC)nc2nc(C(=O)c3ccccc3)cn2c1C [Example 20, (6-Allyl-7-methoxy-5-methylimidazo[1,2-a]pyrimidin-2-yl)phenylmethanone]	45 nM	4 mg/kg
CSc1cc(C)n2cc(C(=O)c3ccccc3)nc2n1 [Example 21, [5-Methyl-7-(methylthio)imidazo[1,2-a]pyrimidin-2-yl]phenylmethanone]	190 nM	50 mg/kg
CCCc1cc(SC)nc2nc(C(=O)c3ccccc3)cn12 [Example 22, [7-(Methylthio)-5-propylimidazo[1,2-a]pyrimidin-2-yl]phenylmethanone]	89 nM	50 mg/kg
COc1nc2nc(C(=O)c3ccccc3)cn2c(C)c1CC1CC1 [Example 23, [6-Cyclopropylmethyl-7-methoxy-5-methylimidazo[1,2-a]pyrimidin-2-yl]phenylmethanone]	30 nM	10 mg/kg

SMILES	IC50 (benzodiazepine receptors)	minimal effective dose [1]
COc1nc2nc(C(=O)c3ccccc3)cn2c(C)c1CC1CCCCC1 [Example 24, [6-Cyclohexylmethyl-7-methoxy-5-methylimidazo[1,2-a]pyrimidin-2-yl]phenylmethanone]	250 nM	50 mg/kg
CCOc1nc2nc(C(=O)c3ccccc3)cn2c(C)c1CC [Example 25, [7-Ethoxy-6-ethyl-5-methylimidazo[1,2-a]pyrimidin-2-yl]phenylmethanone]	1900 nM	50 mg/kg
CCCc1c(C)c(OC)nc2nc(C(=O)c3ccccc3)cn12 [Example 26, [7-Methoxy-6-methyl-5-propylimidazo[1,2-a]pyrimidin-2-yl]phenylmethanone]	740 nM	20 mg/kg
CCCc1c(CC)c(OC)nc2nc(C(=O)c3ccccc3)cn12 [Example 27, [6-Ethyl-7-methoxy-5-n-propylimidazo[1,2-a]pyrimidin-2-yl]phenylmethanone]	470 nM	50 mg/kg
COc1ccn2cc(C(=O)c3ccccc3)nc2n1 [Example 28, [7-Methoxyimidazo[1,2-a]pyrimidin-2-yl]phenylmethanone]	8500 nM	50 mg/kg
CCc1c(C)c(OC)nc2nc(C(=O)c3ccccc3)cn12 [Example 29, [5-Ethyl-7-methoxy-6-methylimidazo[1,2-a]pyrimidin-2-yl]phenylmethanone]	1000 nM	20 mg/kg
CCCCc1c(OC)nc2nc(C(=O)c3ccccc3)cn2c1C [Example 30, [6-n-Butyl-7-methoxy-5-methylimidazo[1,2-]pyrimidin-2-yl]phenylmethanone]	42 nM	2 mg/kg
CCc1c(OC)nc2nc(C(=O)c3ccccc3)cn2c1CC [Example 31, [5,6-Diethyl-7-methoxyimidazo[1,2-a]pyrimidin-2-yl]phenylmethanone]	107 nM	2 mg/kg
CCCc1c(OC)nc2nc(C(=O)c3ccccc3)cn2c1C [Example 32, [7-Methoxy-5-methyl-6-n-propylimidazo[1,2-a]pyrimidin-2-yl]phenylmethanone]	85 nM	5 mg/kg
CCCc1c(OC)nc2nc(C(=O)c3ccccc3)cn2c1CCC [Example 33, [7-Methoxy-5,6-di-n-propylimidazo[1,2-a]pyrimidin-2-yl]phenylmethanone]	1250 nM	50 mg/kg
CCCCc1c(OC)nc2nc(C(=O)c3ccccc3)cn2c1CCC [Example 34, [6-n-Butyl-7-methoxy-5-n-propylimidazo[1,2-a]pyrimidin-2-yl]phenylmethanone]	710 nM	50 mg/kg
CCCc1c(OC)nc2nc(C(=O)c3ccccc3)cn2c1CC [Example 35, [5-Ethyl-7-methoxy-6-n-propylimidazo[1,2-a]pyrimidin-2-yl]phenylmethanone]	34 nM	10 mg/kg
CCCCc1c(OC)nc2nc(C(=O)c3ccccc3)cn2c1CC [Example 36, [6-n-Butyl-5-ethyl-7-methoxy-imidazo[1,2-a]pyrimidin-2-yl]phenylmethanone]	34 nM	10 mg/kg
CCc1c(SC)nc2nc(C(=O)c3ccccc3)cn2c1CC [Example 52, [5,6-Diethyl-7-(methylthio)imidazo[1,2-a]pyrimidin-2-yl]phenylmethanone]	12 nM	
CCCc1c(SC)nc2nc(C(=O)c3ccccc3)cn2c1CC [Example 53, [5-Ethyl-7-(methylthio)-6-n-propylimidazo[1,2-a]pyrimidin-2-yl]phenylmethanone]	47 nM	
CCc1c(OC)nc2nc(C(=O)c3cccs3)cn2c1C [Example 60, 6-ethyl 7-methoxy 5-methylimidazo/1,2-a/pyrimidin-2-yl(2-thienyl)methanone]		50 mg/kg
CCc1c(OC)nc2nc(C(=O)c3ccccn3)cn2c1C [Example 61, (6-ethyl 7-methoxy 5-methylimidazo/1,2-a/pyrimidin-2-yl)(2-pyridinyl)methanone]		50 mg/kg
CCc1c(OC)nc2nc(C(=O)c3ccc(F)cc3)cn2c1C [Example 62, (6-ethyl 7-methoxy 5-methylimidazo/1,2-a/pyrimidin-2-yl)(4-fluorophenyl)methanone]		10 mg/kg
CCc1c(OC)nc2nc(C(=O)c3cccc(C(F)(F)F)c3)cn2c1C [Example 63, (6-ethyl 7-methoxy 5-methylimidazo/1,2-a/pyrimidin-2-yl)/(3-trifluoromethyl)phenyl/methanone]		50 mg/kg
CCc1c(OC)nc2nc(C(C)=O)cn2c1C [Example 64, 1-(6-ethyl 7-methoxy 5-methylimidazo/1,2-a/pyrimidin-2-yl)ethanone]		50 mg/kg
